Results taken from ChEMBL document CHEMBL3137356, “MMV Box Cryptosporidium parvum screening set”.

System: Cryptosporidium parvum
Assay: MMV: Cryptosporidium parvum oocysts (Iowa Strain) were prepared for use by treatment with 10 mM HCl (37 degrees C, 10 min) followed by 2 mM sodium taurocholate in phosphate-buffered saline (PBS) with Ca2+ and Mg2+ (16 degrees C, 10 min) in order to stimulate excystation. The high-throughput screen was carried out by inoculating >90% confluent human ileocecal adenocarcinoma (HCT-8) cells (ATCC) with ~5.5 x 10^3 primed oocysts per well. Experimental compounds or DMSO (vehicle) were added three hours after infection, and cells were incubated for 48 hours.
Format: functional

Row | SMILES | Inhibition [%]
1 | CN1CCN(c2ccc(Nc3c4ccccc4nc4ccccc34)cc2)CC1 | 7.066
2 | CN(C)CCCNc1c2ccccc2nc2ccccc12 | 55.64
3 | CCN1CCCC1CNc1[nH]cnc2c3cc(Cl)ccc3nc1-2 (centres undefined) | -14.57
4 | COc1ccc(-c2c(C)nn3c(N)c(C#N)cnc23)cc1OC | -20.9
5 | CSC1=NC(=Nc2c(C)cccc2C)C2(CCC(C(C)(C)C)CC2)N1c1ccc(Cl)cc1 (centres undefined) | -57.3
6 | Cc1cc(C)cc(Nc2cc(C)nc3nc(C(F)(F)F)nn23)c1 | -21.92
7 | O=C(NCC(c1ccsc1)N1CCCCCC1)c1ccc(C(F)(F)F)cc1 (centres undefined) | -22.24
8 | COc1ccc(-c2cc3c(SCC(=O)Nc4cc(C(F)(F)F)ccc4Cl)nccn3n2)cc1 | -78.4
9 | Cc1ccc(-c2cc3c(SCC(=O)Nc4cc(C(F)(F)F)ccc4Cl)nccn3n2)cc1 | -45.33
10 | CCN(CC)CCNc1ncnc2c1[nH]c1ccc(Cl)cc12 | -27.98
11 | CCOC(=O)c1cnc2ccc(CC)cc2c1O | -16.47
12 | CCN(CC)CCNc1ccnc2cc(Cl)ccc12 | -45.62
13 | CCCCCC(=O)N1c2ccccc2N=C2CC(c3ccc(OC)c(OC)c3)CC(O)=C2C1c1ccc(C(F)(F)F)cc1 (centres undefined) | -9.957
14 | Cc1cc(Nc2ccc3ccccc3c2)n2ncnc2n1 | -10.13
15 | Cc1cc(NCCN2CCCCC2)c2ccc3ccccc3c2n1 | -25.58
16 | COc1ccc(-n2ccnc2SCC(=O)Nc2cc(C)ccc2C)c(OC)c1 | -14.53
17 | CCN1CCN(Cc2ccc(NC(=O)c3cc4ccc5cccnc5c4[nH]3)cc2)CC1 | -49.16
18 | COc1ccc(-c2nc(NC(=O)CS(=O)(=O)c3ccc(F)cc3)sc2C)cc1 | -22.95
19 | O=C(O)C1Cc2c([nH]c3ccccc23)C(c2ccc(Cl)cc2Cl)N1 (centres undefined) | -71.65
20 | Cc1ccc(N2C(=O)C3C(C2=O)C2(c4ccccc4)C(=O)C3(c3ccccc3)C(c3ccccc3)=C2c2ccccc2)cc1 (centres undefined) | -46.86
21 | CCc1c(C)c(=N)c2ccccc2n1C.I | 11.41
22 | COc1cccc(NC(=O)[C@H](C(C)C)n2c(=O)[nH]c3ccccc3c2=O)c1 | 8.977
23 | CCOC(=O)c1cn(CC)c2cc(N(C)CCc3ccc(OC)c(OC)c3)c(F)cc2c1=O | 43.56
24 | CCC(c1ccccc1)c1nn2c(-c3cccs3)nnc2s1 (centres undefined) | -11.07
25 | CC(C)(C)c1ccc(O)c(CNC2CCCCC2)c1 | -70.4

Row | SMILES | Inhibition [%]
26 | O=[N+]([O-])c1ccc(C=NNc2nc3ccccc3[nH]2)cc1 | -55.94
27 | CCOc1cc2c(cc1OCC)C(c1cc(OC)c(O)cc1Cl)NCC2 (centres undefined) | -16.38
28 | CC1CN(C(=O)c2sc3ccccc3c2Cl)CC(C)O1 (centres undefined) | 27
29 | CN(C)c1ccc(C=Cc2nc(=O)c3ccccc3o2)cc1 | -61.37
30 | COc1ccc(C2=C(c3ccc(OC)cc3)C3(c4ccccc4)C(=O)C2(c2ccccc2)C2C(=O)N(c4ccc(C)cc4)C(=O)C23)cc1 (centres undefined) | 63.25
31 | CCOC(=O)c1c(NC(=O)c2ccccc2)sc2c(O)c(CN(CC)CC)ccc12 | 50.63
32 | CCOC(=O)C1=C(c2ccccc2)N=c2sc(=Cc3cc(C)n(-c4ccc(F)cc4)c3C)c(=O)n2C1c1cccc(OC)c1OC (centres undefined) | -76.69
33 | CCC1(C)CC(CCNCc2ccccc2O)(c2ccc(C)cc2)CCO1 (centres undefined) | -2.346
34 | OC(CNC1CCCCC1)Cn1c2ccccc2c2ccccc21 (centres undefined) | -24.91
35 | Cc1cc(Nc2ccc(C)c(Cl)c2)n2nc(C(F)(F)F)nc2n1 | 4.308
36 | COc1cccc(C=Cc2nc(=O)c3ccccc3o2)c1OC | 44.65
37 | CCCN(CCC)CC(O)COc1ccccc1C(=O)Nc1ccccc1 (centres undefined) | 46.62
38 | Fc1ccc2[nH]c3c(NCCCN4CCOCC4)ncnc3c2c1 | -0.2614
39 | COc1ccc(C=C2SC(=N)N(c3ccccc3OC)C2=O)cc1 | 10.76
40 | COc1ccc(NC(=O)C2c3ccccc3C(=O)N(CC(C)C)C2c2cccs2)cc1Cl (centres undefined) | -10.67
41 | CCOC(=O)c1c(C)n(-c2ccc(Cl)cc2)c2ccc(OC(=O)C=Cc3ccccc3)cc12 | -77.36
42 | COc1ccc2c(c1)OC(O)(C(F)(F)C(F)(F)F)CC2=O (centres undefined) | 33.72
43 | C=CC12CCN(CC1)C(C(O)c1ccnc3ccc(OC)cc13)C2.Cl (centres undefined) | 1.246
44 | Cc1ccc(-c2cc3nc4c(c(O)n3n2)CCCC4)cc1 | 2.31
45 | Cc1cccc(Nc2nc(N)c3ccccc3n2)c1.Cl | 39.08
46 | CCn1c(CN2CCN(Cc3ccccc3)CC2)nc2cc(NC(=O)c3cccs3)ccc21 | -14.21
47 | COc1ccccc1CNC(=O)CCn1c(=O)[nH]c2ccccc2c1=O | 3.729
48 | c1ccc2cc3c(Nc4ccc(N5CCOCC5)cc4)ccnc3cc2c1 | 17
49 | Cc1cc(C)c2c(c1)OCN(Cc1ccccc1Cl)C2 | -66.49
50 | COc1cc(OC)c(N(C)C(=O)c2cc3c(s2)-c2ccccc2S(=O)(=O)C3)cc1Cl | -25.68

Row | SMILES | Inhibition [%]
51 | COc1ccccc1NC1=C(N2CCCCC2)C(=O)c2ccccc2C1=O | -35.82
52 | CCOC(=O)c1cn(CC)c2cc(N3CCCCC3)c(F)cc2c1=O | 6.363
53 | CCCc1cc(O)c2c3c(c(=O)oc2c1)CN(C)CC3 | -49.5
54 | Cc1cc(NC(=O)C2c3ccccc3C(=O)N(CC(C)C)C2c2cccs2)no1 (centres undefined) | -19.27
55 | Cl.Oc1ccccc1CNCC12CC3CC(CC(C3)C1)C2 | -10.2
56 | CNCCCNc1ccnc2cc(Cl)ccc12 | -4.729
57 | COc1ccccc1CNC(=O)CCn1c(=O)[nH]c2ccsc2c1=O | -10.39
58 | COc1ccc(Br)cc1C1Nc2ccc3ccccc3c2C2=C1C(=O)CC(c1ccccc1)C2 (centres undefined) | -67.54
59 | Cc1cc(C=C2SC(=Nc3ccccc3)N(C3CCCC3)C2=O)c(C)n1-c1ccc(Cl)cc1 | 0.2141
60 | CC1CCN(Cc2ccc(NC(=O)c3cc4ccc5cccnc5c4[nH]3)cc2)CC1 | -17.38
61 | CCc1ccc(Nc2cc(C)c3ccc(O)cc3n2)cc1.Cl | -30.31
62 | COc1ccc2c(=O)cc(C(Cl)(Cl)Cl)oc2c1 | 71.77
63 | CSc1ccccc1C(=O)Nc1nc(-c2ccccn2)cs1 | 75.6
64 | COc1ccc(-c2nc3cc(Cc4ccc5[nH]c(-c6ccc(OC)cc6)nc5c4)ccc3[nH]2)cc1 | 35.52
65 | CCOC(=O)c1ccc2nc(-c3ccccc3)cc(O)c2c1 | -8.454
66 | Cc1cc(Nc2ccc(Cl)cc2)n2nc(C(F)(F)F)nc2n1 | 36.64
67 | COc1ccc(C(C)=O)cc1N1C(=O)C2C(C1=O)C1(c3ccccc3)C(=O)C2(c2ccccc2)C(c2ccc(C)cc2)=C1c1ccc(C)cc1 (centres undefined) | 5.543
68 | CCCCCCOC(=O)C1=C(C)NC(=O)NC1c1ccccc1F (centres undefined) | -26.01
69 | Cc1ccc(N2C3c4ccccc4N(S(=O)(=O)c4ccc(C)cc4)C2c2ccccc2N3S(=O)(=O)c2ccc(C)cc2)cc1 | -51.15
70 | CCCc1c(CC)c(=N)c2ccccc2n1C | -20.98
71 | Cc1ccc(Nc2nc(NCCO)c3ccccc3n2)cc1C | 34.33
72 | CCOC(=O)c1cnc2c(C)cc(C)cc2c1Nc1ccc(OC)c(OC)c1 | -30.02
73 | COc1ccc(NC(=O)C2c3ccccc3C(=O)N(CC(C)C)C2c2cccs2)cc1 (centres undefined) | 0.02548
74 | c1ccc(Cn2c(N=Nc3c(Nc4ccccc4)ccc4ccccc34)nc3ccccc32)cc1 | 2.817
